For assay [1], the target named is T1, Histone-lysine N-methyltransferase NSD2 (Homo sapiens, UniProt O96028).
T1 sequence (O96028 whole entry): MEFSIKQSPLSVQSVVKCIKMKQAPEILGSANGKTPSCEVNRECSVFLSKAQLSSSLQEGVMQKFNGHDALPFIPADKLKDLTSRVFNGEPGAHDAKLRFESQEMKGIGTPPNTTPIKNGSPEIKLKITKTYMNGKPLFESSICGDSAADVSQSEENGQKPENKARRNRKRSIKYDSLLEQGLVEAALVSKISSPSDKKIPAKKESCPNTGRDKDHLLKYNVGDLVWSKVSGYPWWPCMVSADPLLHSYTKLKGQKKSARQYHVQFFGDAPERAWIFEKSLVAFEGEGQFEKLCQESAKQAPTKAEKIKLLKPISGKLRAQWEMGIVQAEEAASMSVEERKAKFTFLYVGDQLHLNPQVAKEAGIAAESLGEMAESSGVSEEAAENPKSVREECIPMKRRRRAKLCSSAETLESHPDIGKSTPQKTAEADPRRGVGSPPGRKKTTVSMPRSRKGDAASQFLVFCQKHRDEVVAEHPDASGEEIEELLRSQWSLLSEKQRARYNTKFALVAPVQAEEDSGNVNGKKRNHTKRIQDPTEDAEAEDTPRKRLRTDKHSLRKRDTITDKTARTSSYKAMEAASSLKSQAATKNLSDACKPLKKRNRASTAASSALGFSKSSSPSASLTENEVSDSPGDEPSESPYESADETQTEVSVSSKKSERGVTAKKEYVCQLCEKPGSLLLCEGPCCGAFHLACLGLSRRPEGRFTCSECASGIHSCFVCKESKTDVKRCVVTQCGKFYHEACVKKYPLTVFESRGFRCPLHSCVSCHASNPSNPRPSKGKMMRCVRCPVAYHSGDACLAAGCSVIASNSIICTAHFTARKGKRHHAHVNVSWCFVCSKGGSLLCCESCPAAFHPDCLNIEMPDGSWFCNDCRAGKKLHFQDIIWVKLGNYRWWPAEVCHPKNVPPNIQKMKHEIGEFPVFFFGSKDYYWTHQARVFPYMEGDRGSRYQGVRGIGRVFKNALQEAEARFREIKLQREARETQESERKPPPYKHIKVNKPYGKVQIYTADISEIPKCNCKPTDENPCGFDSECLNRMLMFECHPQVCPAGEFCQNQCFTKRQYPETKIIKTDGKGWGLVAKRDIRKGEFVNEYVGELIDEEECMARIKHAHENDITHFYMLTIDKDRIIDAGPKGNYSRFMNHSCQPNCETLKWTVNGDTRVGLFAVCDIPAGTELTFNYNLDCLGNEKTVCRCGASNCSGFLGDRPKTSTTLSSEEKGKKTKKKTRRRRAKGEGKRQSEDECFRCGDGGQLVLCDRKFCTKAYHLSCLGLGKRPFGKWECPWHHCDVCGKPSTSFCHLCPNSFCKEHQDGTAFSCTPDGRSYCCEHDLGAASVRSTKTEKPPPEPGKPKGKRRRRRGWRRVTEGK
The assay is classed as biochemical.

Assay [2] concerns the target UDP-galactopyranose mutase (Mycobacterium tuberculosis, UniProt P9WIQ1). As to the kind of experiment: Inhibitors of Mycobacterium tuberculosis UDP-galactopyranose mutase (UGM) enzyme Measured in Biochemical System Using Plate Reader - 2105-02_Inhibitor_Dose_CherryPick_Activity. [Related pubchem assays (depositor defined):AID504439].
The nature of assay [3]: NIH3T3 cell viability loss – ATP luminescence, mouse fibroblasts, counter-screen, dose response (AID 2010).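 Further: cells exposed to compound for about 90 hours before reading.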 The class given is functional, cell-based.
Assay [4] can be described thus: Counterscreen for AddAB inhibitors: absorbance-based bacterial cell-based high throughput dose response assay for inhibitors of bacterial viability. [Related pubchem assays (depositor defined):AID435030, AID449728, AID449731, AID488942, AID488955, AID488956]. The assay is classed as functional.
Assay [5] deals with T2, Streptokinase A (Streptococcus pyogenes serotype M1, UniProt P10520).
T2 sequence (P10520 whole entry): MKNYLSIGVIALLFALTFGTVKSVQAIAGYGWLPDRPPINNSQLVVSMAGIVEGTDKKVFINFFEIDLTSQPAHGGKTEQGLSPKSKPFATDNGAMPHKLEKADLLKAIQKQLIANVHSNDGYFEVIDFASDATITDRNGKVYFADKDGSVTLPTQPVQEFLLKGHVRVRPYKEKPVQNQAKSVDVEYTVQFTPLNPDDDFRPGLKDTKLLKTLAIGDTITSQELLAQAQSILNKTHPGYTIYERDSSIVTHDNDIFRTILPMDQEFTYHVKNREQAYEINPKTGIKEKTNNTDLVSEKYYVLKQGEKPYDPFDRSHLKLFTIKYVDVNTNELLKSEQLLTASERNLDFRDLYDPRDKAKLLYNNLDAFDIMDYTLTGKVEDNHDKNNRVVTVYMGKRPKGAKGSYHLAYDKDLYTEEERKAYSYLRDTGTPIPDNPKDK
As to the kind of experiment: viability-normalized secreted streptokinase activity reduction – plasminogen activation absorbance, OD405, dose response (AID 1914).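 Further: secreted streptokinase activity via plasminogen activation per viability signal from cell pellet.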 The class given is functional, Streptococcus pyogenes M1 GAS.

The target in assay [6] is T3, Cysteine protease ATG4B (Homo sapiens, UniProt Q9Y4P1).
T3 sequence (Q9Y4P1 whole entry): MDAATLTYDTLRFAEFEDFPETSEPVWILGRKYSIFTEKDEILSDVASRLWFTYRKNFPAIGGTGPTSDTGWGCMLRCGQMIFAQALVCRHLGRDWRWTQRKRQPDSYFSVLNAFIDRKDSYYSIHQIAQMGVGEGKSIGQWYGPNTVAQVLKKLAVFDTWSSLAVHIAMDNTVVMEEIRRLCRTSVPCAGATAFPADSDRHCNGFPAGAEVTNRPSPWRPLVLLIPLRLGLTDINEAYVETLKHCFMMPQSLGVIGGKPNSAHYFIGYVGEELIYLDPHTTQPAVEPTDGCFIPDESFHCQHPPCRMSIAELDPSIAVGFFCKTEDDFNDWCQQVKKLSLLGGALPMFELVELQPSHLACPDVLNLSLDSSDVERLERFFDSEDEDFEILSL
Nature of the assay: autophagin-1 cysteine protease inhibition – biochemical, fluorescence, set 2, dose response (AID 588584). The class given is functional.

For assay [7], the target named is ATP-dependent molecular chaperone HSP82 (Candida albicans (strain WO-1) (Yeast), UniProt C4YTQ8). As to the kind of experiment: steroid-induced GRE reporter decrease in yeast – S. cerevisiae, luminescence, Hsp90 inhibitor project, dose response (AID 2400).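 Further: beta-galactosidase luminescence from glucocorticoid response element reporter as proxy for Hsp90 function; inhibitor potency where signal loss means Hsp90 inhibition.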 The class given is functional, cell-based.
Sequence of ATP-dependent molecular chaperone HSP82 (C4YTQ8 whole entry): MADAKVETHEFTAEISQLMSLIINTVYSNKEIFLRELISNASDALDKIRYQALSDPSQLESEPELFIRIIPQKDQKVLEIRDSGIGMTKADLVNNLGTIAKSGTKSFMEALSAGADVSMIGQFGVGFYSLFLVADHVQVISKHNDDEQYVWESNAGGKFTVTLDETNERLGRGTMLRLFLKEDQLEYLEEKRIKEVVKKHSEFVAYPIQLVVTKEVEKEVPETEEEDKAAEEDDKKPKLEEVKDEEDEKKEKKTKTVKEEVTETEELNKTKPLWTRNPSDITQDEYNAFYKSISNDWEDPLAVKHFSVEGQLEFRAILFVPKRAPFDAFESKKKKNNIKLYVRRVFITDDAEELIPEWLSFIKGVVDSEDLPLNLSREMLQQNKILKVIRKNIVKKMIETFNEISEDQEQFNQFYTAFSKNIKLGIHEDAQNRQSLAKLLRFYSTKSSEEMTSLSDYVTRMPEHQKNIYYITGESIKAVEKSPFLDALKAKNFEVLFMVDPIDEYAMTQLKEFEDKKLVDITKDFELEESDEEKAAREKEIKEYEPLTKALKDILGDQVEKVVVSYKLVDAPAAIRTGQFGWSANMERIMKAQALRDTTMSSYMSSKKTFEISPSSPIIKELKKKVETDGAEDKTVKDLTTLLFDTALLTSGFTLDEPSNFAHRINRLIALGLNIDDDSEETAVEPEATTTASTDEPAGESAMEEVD
Assay [8] is described as follows: activation of miR-122 Renilla sensor silencing – cell-based, Huh7 psiCHECK-miR122, Renilla luciferase, cherry-picked, dose response (AID 651956).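 Further: huh7 hepatoma cells stably carrying a psiCHECK-2 miR-122 sensor plasmid; renilla luciferase signal reporting endogenous miR-122 activity after 48 h compound exposure.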 The class given is functional.
Assay [9] concerns the target Exodeoxyribonuclease V (Escherichia coli (strain K12), UniProt P04993+P07648+P08394). As to the kind of experiment: RecBCD inhibition via phage-restricted bacterial growth – absorbance, V66 E. coli, mutant T4 phage, counter-screen for AddAB inhibitor project, dose response (AID 492957). The class given is functional, cell-based, Escherichia coli str. K-12 substr. MG1655.

Assay [10] concerns the target Cytochrome P450 3A4 (Homo sapiens, UniProt P08684).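 Further: CYP3A4 tested as one member of a cytochrome P450 panel screen.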
In assay [11] the target is Ephrin type-A receptor 4 (Mus musculus, UniProt Q03137). Nature of the assay: EphA4 ligand-binding antagonists – biochemical, colorimetric, mouse EphA4, primary screen (AID 689). The class given is functional.
Sequence of Ephrin type-A receptor 4 (Q03137 whole entry): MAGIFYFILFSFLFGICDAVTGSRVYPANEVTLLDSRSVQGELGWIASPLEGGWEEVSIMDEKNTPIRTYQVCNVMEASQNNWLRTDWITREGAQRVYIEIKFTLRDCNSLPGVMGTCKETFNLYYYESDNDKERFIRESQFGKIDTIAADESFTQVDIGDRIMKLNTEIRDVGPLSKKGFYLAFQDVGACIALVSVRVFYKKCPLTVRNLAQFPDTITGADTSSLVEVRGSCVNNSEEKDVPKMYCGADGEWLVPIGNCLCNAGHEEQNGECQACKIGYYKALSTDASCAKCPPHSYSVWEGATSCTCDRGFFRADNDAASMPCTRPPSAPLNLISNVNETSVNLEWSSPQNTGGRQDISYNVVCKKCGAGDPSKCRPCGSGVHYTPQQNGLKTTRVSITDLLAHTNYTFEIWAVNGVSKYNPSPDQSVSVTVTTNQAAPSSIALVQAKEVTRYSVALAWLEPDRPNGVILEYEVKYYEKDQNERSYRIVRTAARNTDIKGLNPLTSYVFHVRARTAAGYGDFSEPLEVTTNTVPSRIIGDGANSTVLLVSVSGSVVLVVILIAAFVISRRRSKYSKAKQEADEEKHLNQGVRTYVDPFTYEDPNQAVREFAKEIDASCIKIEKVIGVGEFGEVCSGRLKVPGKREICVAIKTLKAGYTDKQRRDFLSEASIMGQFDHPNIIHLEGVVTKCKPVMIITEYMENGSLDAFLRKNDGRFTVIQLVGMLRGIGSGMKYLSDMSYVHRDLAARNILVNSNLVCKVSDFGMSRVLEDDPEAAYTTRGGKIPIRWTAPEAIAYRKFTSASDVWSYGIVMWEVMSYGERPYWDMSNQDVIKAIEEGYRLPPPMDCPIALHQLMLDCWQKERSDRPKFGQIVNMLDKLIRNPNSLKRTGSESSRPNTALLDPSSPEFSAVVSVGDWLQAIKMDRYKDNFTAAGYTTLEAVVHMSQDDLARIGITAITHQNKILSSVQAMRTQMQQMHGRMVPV

Activity calls are given as the source filed them. A value given as a limit tells only on which side of the number the result lay.

Sequence of Cytochrome P450 3A4 (P08684 whole entry): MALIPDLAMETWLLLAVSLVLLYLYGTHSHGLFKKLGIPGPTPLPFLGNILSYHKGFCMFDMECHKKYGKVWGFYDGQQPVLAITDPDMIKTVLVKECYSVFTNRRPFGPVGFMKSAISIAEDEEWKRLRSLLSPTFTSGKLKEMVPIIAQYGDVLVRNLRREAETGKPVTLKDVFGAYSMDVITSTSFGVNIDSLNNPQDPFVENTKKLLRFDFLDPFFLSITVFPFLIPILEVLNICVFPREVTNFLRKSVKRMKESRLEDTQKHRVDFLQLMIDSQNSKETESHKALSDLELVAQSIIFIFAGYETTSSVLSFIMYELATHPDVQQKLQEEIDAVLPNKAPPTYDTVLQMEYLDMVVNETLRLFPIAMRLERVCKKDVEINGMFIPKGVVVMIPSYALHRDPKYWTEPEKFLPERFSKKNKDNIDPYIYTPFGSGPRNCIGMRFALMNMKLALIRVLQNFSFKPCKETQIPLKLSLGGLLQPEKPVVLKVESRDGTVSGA
Sequence of UDP-galactopyranose mutase (P9WIQ1 whole entry): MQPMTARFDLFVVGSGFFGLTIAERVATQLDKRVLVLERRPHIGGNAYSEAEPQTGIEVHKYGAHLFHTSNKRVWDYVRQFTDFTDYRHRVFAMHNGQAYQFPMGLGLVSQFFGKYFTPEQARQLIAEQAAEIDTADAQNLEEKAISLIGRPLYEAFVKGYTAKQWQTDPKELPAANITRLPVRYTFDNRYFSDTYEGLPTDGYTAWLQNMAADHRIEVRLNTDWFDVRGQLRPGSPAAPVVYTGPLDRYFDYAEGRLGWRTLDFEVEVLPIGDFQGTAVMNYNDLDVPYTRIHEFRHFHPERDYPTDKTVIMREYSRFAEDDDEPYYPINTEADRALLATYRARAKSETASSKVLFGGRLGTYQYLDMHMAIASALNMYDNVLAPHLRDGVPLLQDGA

Usually AC50 stands for the concentration at which the activity in the assay is half-maximal. With `O=C1CCN2C=Nc3cccc4ccc1c2c34`, the AC50 in assay [1] was 9.91 µM (active); in [2], 2.33 µM (active).

A word on the EC50: it is the concentration giving half of the maximal effect. One may read the IC50 as the midpoint of a concentration-inhibition curve. For `Oc1ccc2ccccc2c1/C=N/Nc1nnc(-c2ncc[nH]2)c2ccccc12`, the EC50 is < 6 µM (inconclusive) in assay [3], 5.52 µM (active) in assay [5] and 3.23 µM (active) in assay [7]. The values for the IC50 in assay [4], in [6] and in assay [9] were > 119 µM (inactive), 5.4 µM (active) and > 119 µM (inactive), respectively. Further, the AC50 in assay [8] is 37.6 µM (active).

Consider `CC(C)C(C(=O)O)N1C(=O)/C(=C/C=C/c2ccco2)SC1=S` (stereo unspecified), for which the AC50 in assay [10] was 31.6 µM (inconclusive). For the same compound, in assay [11], the IC50 was 5.26 µM (active).
